The source of these data is patent US4977155A, “1,2,3-triazolo compounds” (priority 1988, dated 1990).

Test [1] concerns N-methyl-D-aspartate (NMDA) receptors. Conditions: cited from earlier work.
Test [2] has as its system kainate receptors. Conditions: in words, background; cited from earlier work.
The subject of test [3] is Quisqualate receptors. Conditions: in words, background; cited from earlier work.
Test [4] deals with quisqualate type receptors. Briefly: 3H-AMPA binding (Test 1). Conditions: rat cerebral cortical membrane homogenate; 5 nM 3H-AMPA; 0° C., 30 min, pH 7.1. From the text:
The quisqualate receptor binding activity of the compounds of the present invention can be illustrated by determining their capability for displacing radioactively labelled 2-amino-3-hydroxy-5-methyl-4-isoxazolepropionic acid (AMPA) from the quisqualate type receptors.
The displacement activity of the compounds may be shown by determining the IC50 value which represents the concentration (μg/ml) which causes a displacement of 50% of the specific binding of ^3 H-AMPA.
^3 H-AMPA binding (Test 1)
500 μl of thawed rat cerebral cortical membrane homogenate in Tris-HCl (30 mM), CaCl2 (2.5 mM) and KSCN (100 mM) pH 7.1 were incubated at 0° C. for 30 min. with 25 μl ^3 H-AMPA (5 nM final concentration) and the test compound and buffer. Non-specific binding was determined by incubation with L-glutamic acid (600 μM final concentration). The binding reaction was terminated by adding 5 ml of ice-cold buffer followed by filtration through Whatman GF/C glass fibre filters and 2×5 ml wash with ice-cold buffer. Bound radioactivity was measured by scintillation counting. IC50 was determined by Hill analysis of at least four concentrations of test compound.

Test [5] concerns quisqualic acid stimulated Na^+ -efflux from rat striatal slices. Briefly: Antagonism of quisqualic acid induced 22Na+ release (Test 2). Format: cell-based. Conditions: rat striatum slices; quisqualic acid 2 μg/ml; read-out: Test 2 EC50 (reduces rate of quisqualic acid stimulated sodium efflux by 50%). On the procedure:
The quisqualate antagonism is measured by determining the EC50 value which represents the concentration which reduces the rate of quisqualic acid stimulated sodium efflux by 50%.
Antagonism of quisqualic acid induced ^22 Na^+ -release (Test 2)
Slices from rat striatum were preincubated with ^22 Na^+ for 30 min. After the ^22 Na^+ loading period, the slices were successively and every minute transferred through a series of tubes, each containing 1.5 ml of a non-radioactive physiological solution saturated with O2, with the help of a basket shaped sieve. Quisqualic acid (2 μg/ml) was present in the last 5 tubes and the compound to be tested was present in the same 5 tubes plus 3 tubes before. The amount of radioactivity in each washout tube as well as that left in the slices at the end of the experiment was measured by scintillation counting. EC50 were calculated by Hill analysis from at least three different concentrations of test compound as the concentration of test compound which reduces the efflux rate of ^22 Na^+ -ions to 50% of the efflux rate in the absence of test compound.

Test [6] concerns NMDA stimulated ^3 H-GABA release from cultured mouse cortex neurons. Put plainly: Inhibition of NMDA stimulated 3H-GABA release from cultured mouse cerebral cortex interneurons (Test 3). The note with it: Neuron, 3 μg/ml NMDA, read-out: Test 3 IC50 (inhibits 50% of NMDA induced 3H-GABA release). It is filed as cell-based. From the text: The NMDA antagonistic properties of the compounds is illustrated by determining their capability to antagonize NMDA stimulated ^3 H-GABA release from cultured mouse cortex neurons.
The NMDA antagonistic activity of the compounds may be shown by determining the IC50 value, which represents the concentration (μg/ml) which inhibits 50% of NMDA induced ^3 H-GABA release.
Inhibition of NMDA stimulated ^3 H-GABA release from cultured mouse cerebral cortex interneurons (Test 3) Release experiments are performed using the model described by Drejer et al. (Life Sci. 38, 2077 (1986)). To cerebral cortex interneurons cultured in petri dishes (30 mm) are added 100 μg/ml 3-vinyl-GABA one hour before the experiment in order to inhibit degradation of GABA in the neurons. 30 min before the experiment 5 μCi ^3 H-GABA is added to each culture and after this preloading period the cells are washed twice with a HEPES (N-2 Hydroxyethylpiperazine-N'-2-ethanesulfonic acid) buffered saline (HBS) containing 10 mM HEPES, 135 mM NaCl, 5 mM KCl, 0.6 mM MgSO4, 1.0 mM CaCl2 and 6 mM D-glucose; pH 7 and placed in a superfusion system. This system consists of a peristaltic pump continuously delivering thermostated 37° C. superfusion medium from a reservoir to the top of a slightly-tilted petri dish. The cell monolayer at the bottom of the dish is covered with a piece of nylon mesh to facilitate dispersion of medium over the cell layer. The medium is continuously collected from the lower part of the dish and delivered to a fraction collector. Initially, the cells are superfused with HBS for 15 min (flow rate 2 ml/min). Then cells are stimulated for 30 sec every 4 min by changing the superfusion medium from HBS to a corresponding medium containing NMDA and antagonists according to the following scheme: […]
stimulation no. 1: 3 μg/ml NMDA stimulation no. 2: 3 μg/ml NMDA+0.3 μg/ml antagonist stimulation no. 3: 3 μg/ml NMDA+3 μg/ml antagonist
Test substances are dissolved in water or 48% ethanol. The final ethanol concentration in the assay must not exceed 0.1%.
The release of ^3 H-GABA in the presence of NMDA (stimulated relase in cpm) are corrected for the mean basal release (cpm) before and after the stimulation.
The stimulated release in the presence of antagonists are expressed relative to the stimulated release by NMDA alone and the IC50 value for the antagonist is calculated (the concentration (μg/ml) of the test substance which inhibits 50% of the NMDA induced ^3 H-GABA release) either from a dose response curve or from the formula: [formula] where Co is stimulated release in control assays and Cx is the stimulated release in the test assay (the calculation assumes normal mass-action interaction). 25-75% inhibition of the NMDA stimulation must be obtained, before calculation of IC50.

In brackets after ≈: the same amount, converted by molar mass. Read-outs that look alike come from different tables or passages of the source.

For the molecule `O=C(O)[C@@H]1CCCN[C@H]1C(=O)O` (relative stereo) [trans-2,3-PDA, trans-2,3-piperidine dicarboxylic acid], the “agonist activity on NMDA receptors” value in test [1] (in words, background) is “strong to moderate agonist activity”.

On to `N[C@@H](CCC(=O)NCC(=O)O)C(=O)O` [3-glutamyl-glycine], for which the “selectivity for kainate receptors” value in test [2] is reported as “some selectivity for kainate receptors”.

For `Cc1onc(O)c1CC(N)C(=O)O` (stereo not drawn) [AMPA, 2-amino-3-hydroxy-5-methyl-4-isoxazolepropionic acid], the “agonist activity on quisqualate receptors” value in test [3] was “potent agonists”.

Take `N[C@H](CCCC(=O)O)C(=O)O` [D-2-amino-adipic acid]: the “antagonist activity on NMDA receptors” value in test [1] (in words, background) is “moderate antagonist activity”.

Turning to `N[C@H](CCCCCP(=O)(O)O)C(=O)O` [D-APH, 2-amino-7-phosphonoheptanoic acid], the “antagonist activity on NMDA receptors” value in test [1] (in words, background) was “most potent and selective antagonists”.

As to `N[C@H](CCCP(=O)(O)O)C(=O)O` [D-APV, 2-amino-5-phosphono-valeric acid], the “antagonist activity on NMDA receptors” value in test [1] (in words, background) is “most potent and selective antagonists”.

For `N[C@H](CCC(=O)O)C(=O)O` [D-glutamic acid], in test [1], the “agonist activity on NMDA receptors” value is “strong to moderate agonist activity”.

In the case of `Oc1nc2ccc3nn[nH]c3c2nc1O` [Ex 1, 7,8 Dihydroxy-1H-1,2,3-triazolo[4,5-f]quinoxaline], the “Test 1 IC50 (displacement of 50% of the specific binding of 3H-AMPA)” value in test [4] is recorded as 13,3 μg/ml.

For orientation: EC50 means the concentration giving half of the maximal effect. As a reminder, the IC50 is the concentration needed to halve the response being measured. With `O=[N+]([O-])c1cc2nc(O)c(O)nc2c2[nH]nnc12` [Ex 2, 7,8-Dihydroxy-4-nitro-1H-1,2,3-triazolo[4,5-f]quinoxaline], the EC50 in test [5] came to 10 µg/mL (≈ 40.3 µM). In test [6], the IC50 is 0.26 µg/mL (≈ 1.05 µM). Besides, the “Test 1 IC50 (displacement of 50% of the specific binding of 3H-AMPA)” value in test [4] is given as 0,85 μg/ml.

Take `N#Cc1cc2nc(O)c(O)nc2c2[nH]nnc12` [Ex 4, 4-Cyano-7,8-dihydroxy-1H-1,2,3-triazolo[4,5-f]quinoxaline]: the “Test 1 IC50 (displacement of 50% of the specific binding of 3H-AMPA)” value in test [4] is 10 µg/mL.

`Cn1nnc2c([N+](=O)[O-])cc3nc(O)c(O)nc3c21` [Ex 6, 7,8-Dihydroxy-1-methyl-4-nitro-1H-1,2,3-triazolo[4,5-f]quinoxaline]: in test [5], the EC50 is 4.1 µg/mL (≈ 15.6 µM). Besides, in test [6], the IC50 came to 0.096 µg/mL (≈ 0.366 µM). For the same molecule, the “Test 1 IC50 (displacement of 50% of the specific binding of 3H-AMPA)” value in test [4] is given as 0,31 μg/ml.

`O=[N+]([O-])c1cc2nc(O)c(O)nc2c2[nH]ncc12` [Ex 9, 7,8-Dihydroxy-4-nitro-1H-pyrazolo[3,4-f]quinoxaline]: in test [6], the IC50 is 0.14 µg/mL (≈ 0.566 µM). Besides, in test [4], the “Test 1 IC50 (displacement of 50% of the specific binding of 3H-AMPA)” value was 0,41 μg/ml.

As for `Cn1nc2c([N+](=O)[O-])cc3nc(O)c(O)nc3c2n1` [Ex 11, 7,8-Dihydroxy-2-methyl-4-nitro-2H-1,2,3-triazolo[4,5-f]quinoxaline], in test [6], the IC50 was 0.14 µg/mL (≈ 0.534 µM). Moreover, in test [4], the “Test 1 IC50 (displacement of 50% of the specific binding of 3H-AMPA)” value is given as 0,36 μg/ml.

As for `Cn1nnc2c3nc(O)c(O)nc3cc([N+](=O)[O-])c21` [Ex 13, 7,8-Dihydroxy-3-methyl-4-nitro-3H-1,2,3-triazolo[4,5-f]quinoxaline], the IC50 in test [6] was 0.11 µg/mL (≈ 0.42 µM). Moreover, the “Test 1 IC50 (displacement of 50% of the specific binding of 3H-AMPA)” value in test [4] is on record as 0,07 μg/ml.

`Cn1nnc2c3nc(O)c(O)nc3cc(C#N)c21` [Ex 15, 4-Cyano-7,8-dihydroxy-3-methyl-3H-1,2,3-triazolo[4,5-f]quinoxaline]: the IC50 in test [6] came to 0.73 µg/mL (≈ 3.01 µM). Besides, the “Test 1 IC50 (displacement of 50% of the specific binding of 3H-AMPA)” value in test [4] is 0,19 μg/ml.

Consider `O=[N+]([O-])c1cc2nc(O)c(O)nc2c2scnc12` [Ex 17, 7,8-Dihydroxy-4-nitrothiazolo[5,4-f]quinoxaline], for which, in test [4], the “Test 1 IC50 (displacement of 50% of the specific binding of 3H-AMPA)” value was 0,21 μg/ml.

`O=[N+]([O-])c1cc2nc(O)c(O)nc2c2nonc12` [Ex 24, 7,8-Dihydroxy-4-nitro-l,2,5-oxadiazolo(3,4-f)quinoxaline]: the half-inhibitory concentration (IC50) in test [6] was 0.13 µg/mL (≈ 0.522 µM). The “Test 1 IC50 (displacement of 50% of the specific binding of 3H-AMPA)” value in test [4] was 0,23 μg/ml.

With `O=[N+]([O-])c1cc2nc(O)c(O)nc2c2nccnc12` [Ex 35, 2,3-Dihydroxy-6-nitropyrazino(2,3-f)quinoxaline], in test [6], the IC50 stood at 0.1 µg/mL (≈ 0.386 µM). In test [4], the “Test 1 IC50 (displacement of 50% of the specific binding of 3H-AMPA)” value is listed as 0,39 μg/ml.

Turning to `Cc1nc2c([N+](=O)[O-])cc3nc(O)c(O)nc3c2nc1C` [Ex 36, 2,3-Dihydroxy-8,9-dimethyl-6-nitropyrazino(2,3-f)quinoxaline], in test [6], the IC50 came out at 0.14 µg/mL (≈ 0.487 µM). Moreover, in test [4], the “Test 1 IC50 (displacement of 50% of the specific binding of 3H-AMPA)” value is listed as 0,39 μg/ml.

Turning to `O=[N+]([O-])c1cc2nc(O)c(O)nc2c2nsnc12` [Ex 38, 7,8-Dihydroxy-4-nitro-1,2,5-thiadiazolo(3,4-f)quinoxaline], the IC50 in test [6] is 0.09 µg/mL (≈ 0.339 µM). Further, the “Test 1 IC50 (displacement of 50% of the specific binding of 3H-AMPA)” value in test [4] is 0,13 μg/ml.

With `Oc1nc2ccc3sccc3c2nc1O` [Ex 39, 2,3-Dihydroxythieno[3,2-f]quinoxaline], in test [4], the “Test 1 IC50 (displacement of 50% of the specific binding of 3H-AMPA)” value is 1,9 μg/ml.

With `CCOC(=O)CC[C@H](N)C(=O)OCC` [GDEE, Glutamic acid diethyl ester], the “antagonist activity on quisqualate receptors” value in test [3] is “selective but very weak antagonist”.

As to `N[C@H](C(=O)O)c1cc(=O)[nH]o1` [Ibotenic acid], in test [1] (in words, background), the “agonist activity on NMDA receptors” value is “strong to moderate agonist activity”.

For `N[C@@H](CCC(=O)O)C(=O)O` [L-glutamic acid], the “agonist activity on quisqualate receptors” value in test [3] is recorded as “potent agonists”.

For the molecule `N[C@@H](CCS(=O)(=O)O)C(=O)O` [L-homocysteic acid], the “agonist activity on NMDA receptors” value in test [1] (in words, background) is given as “strong to moderate agonist activity”.

In the case of `N[C@H](CCC[C@H](N)C(=O)O)C(=O)O` [diaminopimelic acid], in test [1] (in words, background), the “antagonist activity on NMDA receptors” value is “moderate antagonist activity”.

For `N[C@@H](Cn1oc(=O)[nH]c1=O)C(=O)O` [quisqualic acid], the “agonist activity on quisqualate receptors” value in test [3] was “activated selectively”.
